The test system of one test is Peritoneal macrophage. Briefly: Inhibition of LPS-stimulated TNFalpha secretion in C57BL6J mouse peritoneal macrophages at 50 uM after 24 hrs. It is filed as functional, cell-based.
The next test has as its system HCT-8. Briefly: Cytotoxicity against human HCT8 cells at 10 uM after 24 hrs by MTT assay. Format: functional, cell-based. A general note: Formazan colour is commonly taken as a measure of viable cells.
The next test concerns Bel-7402. Put plainly: Cytotoxicity against human Bel7402 cells at 10 uM after 24 hrs by MTT assay. Format: functional, cell-based.
The test system of another test is BGC-823. Put plainly: Cytotoxicity against human BGC823 cells at 10 uM after 24 hrs by MTT assay. Format: functional, cell-based.
A further test has as its system A549. Put plainly: Cytotoxicity against human A549 cells at 10 uM after 24 hrs by MTT assay. It is filed as functional, cell-based.
A further test concerns A2780. Put plainly: Cytotoxicity against human A2780 cells at 10 uM after 24 hrs by MTT assay. Format: functional, cell-based.
In the next test the target is Histone deacetylase 1 (Homo sapiens, UniProt Q13547). Put plainly: Inhibition of human HDAC1 using H3(1-21)K9 after 60 mins by fluorescence assay.

Calls of active or inactive are those of the source. The rule behind the calls is not given here.

What is called IC50 is the concentration needed to halve the response being measured. A higher IC50 goes with lower potency.

Sequence of Histone deacetylase 1 (Q13547 whole entry): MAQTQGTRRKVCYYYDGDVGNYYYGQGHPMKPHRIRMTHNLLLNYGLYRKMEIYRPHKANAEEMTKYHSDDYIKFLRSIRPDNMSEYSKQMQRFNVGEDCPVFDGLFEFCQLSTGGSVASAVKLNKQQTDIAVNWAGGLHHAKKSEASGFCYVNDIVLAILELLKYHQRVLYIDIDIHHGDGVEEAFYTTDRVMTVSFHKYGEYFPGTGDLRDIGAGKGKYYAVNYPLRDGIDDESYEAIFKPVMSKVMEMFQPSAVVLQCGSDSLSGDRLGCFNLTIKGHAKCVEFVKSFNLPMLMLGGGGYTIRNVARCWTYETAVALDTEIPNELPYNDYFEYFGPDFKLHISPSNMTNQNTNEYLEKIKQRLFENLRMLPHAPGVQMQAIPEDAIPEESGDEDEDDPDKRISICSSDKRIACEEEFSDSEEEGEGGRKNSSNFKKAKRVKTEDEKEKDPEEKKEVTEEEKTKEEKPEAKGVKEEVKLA

Consider `CC(C)C[C@@]1(C(N)=O)NC(=O)C[C@]1(C)O`, for which, in the test on Peritoneal macrophage, the inhibition entry is “inactive”. The outcome with HCT-8, with Bel-7402, in the test with BGC-823, in the test with A549 and in the test on A2780 was inactive. This molecule also displayed an IC50 against Histone deacetylase 1 of 3.7 µM.

The values are drawn from ChEMBL document CHEMBL4004792, “Monascustin, an Unusual γ-Lactam from Red Yeast Rice” (J Nat Prod, 2017).
